# Data: PubChem BioAssay (NCI)
# Several values for one entry are separate records, joined by “and”; a condition that tells them apart may be missing. Equal entries are not always repeated.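 48-hour exposure; five concentrations; linearly interpolated endpoints. At the GI50, growth is halved. TGI denotes the concentration required for complete inhibition of growth.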
# Test system: NCI/ADR-RES ovarian
# Assay: NCI tumour cell line growth inhibition, 48 h
SMILES,GI50 [µM],TGI
O=C(CN1CCN(c2cc3c(cc2F)c(=O)c(C(=O)N/N=C/c2ccccc2O)cn3C2CC2)CC1)N/N=C\c1ccccc1O,0.91,> 100 µM
C=C(CNCCO)[C@@H]1CC[C@]2(CO)CC[C@]3(C)[C@H](CC[C@@H]4[C@@]5(C)CCC(N)C(C)(C)[C@@H]5CC[C@]43C)[C@@H]12 (stereo partly drawn),17,33.8 µM
Nc1cc2nc3ccccc3sc-2cc1=O,2.96,16.7 µM
COc1cc2nc(-c3ccc(C(F)(F)F)cc3)cc(OCCCN3CCC(O)CC3)c2cc1OC,0.847,22.7 µM
O=C1NNC(=O)c2ccccc2SSc2ccccc2C(=O)NNC(=O)c2ccccc2SSc2ccccc21,14,50 µM and > 100 µM
COc1cc(C(=O)/C=C/c2sc(Cl)nc2Cl)cc(OC)c1OC,1.97,4.07 µM
COc1cc2nc(C)nc(N[C@H](C)c3cc(N)cc(C(F)(F)F)c3)c2cc1O[C@H]1CCOC1,18.3,60.9 µM
CC1=C(C(=O)Nc2ccc(F)c(Cl)c2)C(c2ccc(Cl)cc2)NC(=O)N1 (stereo not drawn),25.4,75.2 µM
Fc1ccc(Nc2ncnc3ccc(-c4cnc5[nH]ccc5c4)cc23)cc1Cl,2.98,> 87.8 µM
Oc1ccc(Cl)cc1-c1cc(-c2ccccc2Cl)[nH]n1,8.55,> 100 µM
CN(C)CCCNC1=C(Cl)C(=O)c2ccccc2C1=O,7.93,31.8 µM
O=C(Nc1ccc(F)cc1F)c1cc(I)ccc1O,2.92,33.1 µM
CCOc1ccccc1-n1c(CN2CCN(C(=O)COc3ccc(CNCCCCCCN4C5CCCC4CC(OC(=O)Nc4cc(C)ccc4OC)C5)cc3)CC2)nc2ccccc2c1=O (stereo not drawn),7.04,19.6 µM
COc1ccc(C2=CSc3cc(Cl)c(C)cc3S(=O)(=O)N2C(C)=O)cc1,26.8,66.7 µM
CC[C@@]12CCCN3CC[C@]4(c5cccc(OC)c5N(C(C)=O)[C@@H]4CC1)[C@H]32,,> 100 µM
CC(=O)[O][Hg][c]1c(N)c(C)cc(C)c1F,3.48,23.6 µM
CSc1ccccc1C#C/C=C\C#Cc1ccccc1N1CCCC1=O,,> 19.9 µM
NC1CCC(Nc2nc(NCc3ccc(-c4ccco4)nc3)c3ncn(C4CCCC4)c3n2)CC1 (stereo not drawn),,1.39 µM
O=C(CCl)N1c2ccccc2Oc2ccc3ccccc3c21,2.36,> 24 µM
CCCCCCCCSC1=CC(=O)c2nc3ccccc3c3ccnc1c23,97.4,> 100 µM
Cc1ccc(-c2nnc(-c3ccc4ccccc4c3)o2)cc1,,> 79.2 µM
COc1ccc(-c2cc(-c3ccc(Nc4nc(Nc5ccccc5)nc(Nc5ccc(Cl)cc5)n4)cc3)nc(N)c2C#N)cc1,3.66,> 43.1 µM
O=c1n(CC2CO2)c(=O)n(CC2CO2)n1CC1CO1 (stereo not drawn),19.5,> 100 µM

# Test system: MDA-MB-435
# Assay: NCI tumour cell line growth inhibition, 48 h
SMILES,GI50 [µM],TGI
O=C(NCCNc1nccc(-c2c(-c3cccc(O)c3)nc3sccn23)n1)c1ccccc1O,0.491,12.1 µM
CCCCCCCC(=O)SCC/C=C/[C@@H]1CC(=O)NCc2cccc(n2)C2=N[C@@](C)(CS2)C(=O)N[C@@H](C(C)C)C(=O)N1,0.739,> 33.3 µM
C[C@@H](CS(C)(=O)=O)Nc1ncc2cc(Oc3ccc(F)cc3F)c(=O)n(C)c2n1,> 25,> 25 µM
COc1cc2c(c(OC)c1O)C(=O)C(OC)C(c1ccc(O)c(O)c1)O2 (stereo not drawn),0.126,
Cn1ccnc1C(=O)/C=C/c1ccc(CC(=O)Nc2ccc(Br)cc2)cc1,4.37,14.8 µM
CCOC(=O)Nc1nc2ccc(OCC)cc2s1,0.773,3.71 µM
COC(=O)[C@@H](C)C[C@H](Cc1ccc(F)cc1)NC(=O)c1csc([C@@H](C[C@H](C(C)C)N(C)C(=O)[C@@H](NC(=O)[C@H]2CCCCN2C)C(C)C)OC(C)=O)n1,,0.00047 µM and 0.00417 µM
COc1ccc2c(c1)C(=O)/C(=C/c1ccc(OCC(=O)Nc3nccs3)cc1)O2,10.7,46.8 µM
Cc1cnc(NC(=O)C(Cc2ccccc2)NC(=O)c2ccccc2)s1 (stereo not drawn),3.02,15.6 µM
CC(C)c1ccc(C(C)C(=O)N(CC2=C(C(C)c3ccccn3)c3ccccc3C2)C(C)C)cc1 (stereo not drawn),3.73,55.6 µM
O[C@H]1[C@H]2c3cc4c(cc3CN3CCC(=C[C@@H]1O)[C@H]23)OCO4,,7.87 µM
O=[N+]([O-])c1cnc(Sc2ccncn2)s1,2.95,8.76 µM
O=C(Nc1ccc(I)cc1)c1cc([N+](=O)[O-])ccc1O,6.91,> 100 µM
Cc1cc(=O)n2[nH]c(-c3ccc(C(C)(C)C)cc3)cc2n1,5.44,> 100 µM
O=C(O)c1cc(C(=O)O)cc(N2C(=O)c3ccccc3C2=O)c1,,> 100 µM
CNC(=O)c1ccccc1Nc1nc(Nc2ccc(N3CCOCC3)cc2OC)ncc1Cl,0.629,> 66.4 µM
COc1c2ccoc2c(/C=C/C=O)c2oc(-c3ccccc3)cc(=O)c12,4.83,> 100 µM
O=C(CN1CCN(c2cc3c(cc2F)c(=O)c(C(=O)N/N=C/c2ccccc2O)cn3C2CC2)CC1)N/N=C\c1ccccc1O,0.99,> 100 µM
C=C(CNCCO)[C@@H]1CC[C@]2(CO)CC[C@]3(C)[C@H](CC[C@@H]4[C@@]5(C)CCC(N)C(C)(C)[C@@H]5CC[C@]43C)[C@@H]12 (stereo partly drawn),1.72,3.3 µM
Nc1cc2nc3ccccc3sc-2cc1=O,1.76,3.26 µM
COc1cc2nc(-c3ccc(C(F)(F)F)cc3)cc(OCCCN3CCC(O)CC3)c2cc1OC,2.76,9.31 µM

SMILES,GI50 [µM],TGI
O=C1NNC(=O)c2ccccc2SSc2ccccc2C(=O)NNC(=O)c2ccccc2SSc2ccccc21,16.3,50 µM and > 100 µM
COc1cc(C(=O)/C=C/c2sc(Cl)nc2Cl)cc(OC)c1OC,2,4.11 µM
COc1cc2nc(C)nc(N[C@H](C)c3cc(N)cc(C(F)(F)F)c3)c2cc1O[C@H]1CCOC1,16.8,30.5 µM
CC1=C(C(=O)Nc2ccc(F)c(Cl)c2)C(c2ccc(Cl)cc2)NC(=O)N1 (stereo not drawn),22.8,56.4 µM
Fc1ccc(Nc2ncnc3ccc(-c4cnc5[nH]ccc5c4)cc23)cc1Cl,8.66,> 80.1 µM
Oc1ccc(Cl)cc1-c1cc(-c2ccccc2Cl)[nH]n1,8.44,> 100 µM
CN(C)CCCNC1=C(Cl)C(=O)c2ccccc2C1=O,1.9,3.64 µM
O=C(Nc1ccc(F)cc1F)c1cc(I)ccc1O,3.02,10.1 µM
CCOc1ccccc1-n1c(CN2CCN(C(=O)COc3ccc(CNCCCCCCN4C5CCCC4CC(OC(=O)Nc4cc(C)ccc4OC)C5)cc3)CC2)nc2ccccc2c1=O (stereo not drawn),0.811,2.12 µM
COc1ccc(C2=CSc3cc(Cl)c(C)cc3S(=O)(=O)N2C(C)=O)cc1,28.6,87.8 µM
CC[C@@]12CCCN3CC[C@]4(c5cccc(OC)c5N(C(C)=O)[C@@H]4CC1)[C@H]32,,> 100 µM
CC(=O)[O][Hg][c]1c(N)c(C)cc(C)c1F,1.48,2.96 µM
CSc1ccccc1C#C/C=C\C#Cc1ccccc1N1CCCC1=O,,> 13.9 µM
NC1CCC(Nc2nc(NCc3ccc(-c4ccco4)nc3)c3ncn(C4CCCC4)c3n2)CC1 (stereo not drawn),0.0225,1.24 µM
O=C(CCl)N1c2ccccc2Oc2ccc3ccccc3c21,0.577,1.88 µM
CCCCCCCCSC1=CC(=O)c2nc3ccccc3c3ccnc1c23,41.7,> 100 µM
Cc1ccc(-c2nnc(-c3ccc4ccccc4c3)o2)cc1,,> 100 µM
COc1ccc(-c2cc(-c3ccc(Nc4nc(Nc5ccccc5)nc(Nc5ccc(Cl)cc5)n4)cc3)nc(N)c2C#N)cc1,0.962,2.16 µM
O=c1n(CC2CO2)c(=O)n(CC2CO2)n1CC1CO1 (stereo not drawn),34.7,> 100 µM
c1cc2c(cc1NC1=NCCO1)CCC2,,> 10 µM

# Test system: DU-145 prostate
# Assay: NCI tumour cell line growth inhibition, 48 h
SMILES,GI50,TGI
NC(CSC(c1ccccc1)(c1ccccc1)c1ccc2c(c1)OCO2)C(=O)O (stereo not drawn),2.33 µM,6.88 µM
O=C(NCCNc1nccc(-c2c(-c3cccc(O)c3)nc3sccn23)n1)c1ccccc1O,5.23 µM,35.5 µM
CCCCCCCC(=O)SCC/C=C/[C@@H]1CC(=O)NCc2cccc(n2)C2=N[C@@](C)(CS2)C(=O)N[C@@H](C(C)C)C(=O)N1,0.3 µM,> 33.3 µM
C[C@@H](CS(C)(=O)=O)Nc1ncc2cc(Oc3ccc(F)cc3F)c(=O)n(C)c2n1,> 25 µM,> 25 µM
COc1cc2c(c(OC)c1O)C(=O)C(OC)C(c1ccc(O)c(O)c1)O2 (stereo not drawn),0.374 µM,> 100 µM
Cn1ccnc1C(=O)/C=C/c1ccc(CC(=O)Nc2ccc(Br)cc2)cc1,3.93 µM,12.2 µM
CCOC(=O)Nc1nc2ccc(OCC)cc2s1,> 100 µM,> 100 µM
COC(=O)[C@@H](C)C[C@H](Cc1ccc(F)cc1)NC(=O)c1csc([C@@H](C[C@H](C(C)C)N(C)C(=O)[C@@H](NC(=O)[C@H]2CCCCN2C)C(C)C)OC(C)=O)n1,0.000984 µM and 0.00525 µM,0.0214 µM
COc1ccc2c(c1)C(=O)/C(=C/c1ccc(OCC(=O)Nc3nccs3)cc1)O2,0.504 µM,5.73 µM
Cc1cnc(NC(=O)C(Cc2ccccc2)NC(=O)c2ccccc2)s1 (stereo not drawn),21.4 µM,47 µM
CC(C)c1ccc(C(C)C(=O)N(CC2=C(C(C)c3ccccn3)c3ccccc3C2)C(C)C)cc1 (stereo not drawn),5.29 µM,18 µM
O=[N+]([O-])c1cnc(Sc2ccncn2)s1,1.8 µM,3.22 µM
O=C(Nc1ccc(I)cc1)c1cc([N+](=O)[O-])ccc1O,17 µM,> 100 µM
Cc1cc(=O)n2[nH]c(-c3ccc(C(C)(C)C)cc3)cc2n1,11.4 µM,75.9 µM
O=C(O)c1cc(C(=O)O)cc(N2C(=O)c3ccccc3C2=O)c1,,> 100 µM
CNC(=O)c1ccccc1Nc1nc(Nc2ccc(N3CCOCC3)cc2OC)ncc1Cl,0.768 µM,> 39.2 µM
COc1c2ccoc2c(/C=C/C=O)c2oc(-c3ccccc3)cc(=O)c12,10.7 µM,> 100 µM
O=C(CN1CCN(c2cc3c(cc2F)c(=O)c(C(=O)N/N=C/c2ccccc2O)cn3C2CC2)CC1)N/N=C\c1ccccc1O,0.716 µM,> 100 µM
C=C(CNCCO)[C@@H]1CC[C@]2(CO)CC[C@]3(C)[C@H](CC[C@@H]4[C@@]5(C)CCC(N)C(C)(C)[C@@H]5CC[C@]43C)[C@@H]12 (stereo partly drawn),5.1 µM,16.6 µM
Nc1cc2nc3ccccc3sc-2cc1=O,1.77 µM,3.25 µM

SMILES,GI50,TGI
COc1cc2nc(-c3ccc(C(F)(F)F)cc3)cc(OCCCN3CCC(O)CC3)c2cc1OC,4.96 µM,20.4 µM
O=C1NNC(=O)c2ccccc2SSc2ccccc2C(=O)NNC(=O)c2ccccc2SSc2ccccc21,5 µM,50 µM and 33.6 µM
COc1cc(C(=O)/C=C/c2sc(Cl)nc2Cl)cc(OC)c1OC,1.8 µM,3.21 µM
COc1cc2nc(C)nc(N[C@H](C)c3cc(N)cc(C(F)(F)F)c3)c2cc1O[C@H]1CCOC1,16.2 µM,30.5 µM
CC1=C(C(=O)Nc2ccc(F)c(Cl)c2)C(c2ccc(Cl)cc2)NC(=O)N1 (stereo not drawn),15.6 µM,37 µM
Fc1ccc(Nc2ncnc3ccc(-c4cnc5[nH]ccc5c4)cc23)cc1Cl,4.58 µM,> 93.3 µM
Oc1ccc(Cl)cc1-c1cc(-c2ccccc2Cl)[nH]n1,8.05 µM,> 100 µM
CN(C)CCCNC1=C(Cl)C(=O)c2ccccc2C1=O,1.92 µM,3.64 µM
O=C(Nc1ccc(F)cc1F)c1cc(I)ccc1O,3.87 µM,> 100 µM
CCOc1ccccc1-n1c(CN2CCN(C(=O)COc3ccc(CNCCCCCCN4C5CCCC4CC(OC(=O)Nc4cc(C)ccc4OC)C5)cc3)CC2)nc2ccccc2c1=O (stereo not drawn),1.8 µM,3.49 µM
COc1ccc(C2=CSc3cc(Cl)c(C)cc3S(=O)(=O)N2C(C)=O)cc1,38.4 µM,> 100 µM
CC[C@@]12CCCN3CC[C@]4(c5cccc(OC)c5N(C(C)=O)[C@@H]4CC1)[C@H]32,,> 100 µM
CC(=O)[O][Hg][c]1c(N)c(C)cc(C)c1F,2.39 µM,7.14 µM
CSc1ccccc1C#C/C=C\C#Cc1ccccc1N1CCCC1=O,> 22.5 µM,> 50 µM
NC1CCC(Nc2nc(NCc3ccc(-c4ccco4)nc3)c3ncn(C4CCCC4)c3n2)CC1 (stereo not drawn),0.0426 µM,12.2 µM
O=C(CCl)N1c2ccccc2Oc2ccc3ccccc3c21,1.17 µM,2.53 µM
CCCCCCCCSC1=CC(=O)c2nc3ccccc3c3ccnc1c23,> 100 µM,> 100 µM
Cc1ccc(-c2nnc(-c3ccc4ccccc4c3)o2)cc1,,> 100 µM
COc1ccc(-c2cc(-c3ccc(Nc4nc(Nc5ccccc5)nc(Nc5ccc(Cl)cc5)n4)cc3)nc(N)c2C#N)cc1,2.41 µM,> 50 µM
O=c1n(CC2CO2)c(=O)n(CC2CO2)n1CC1CO1 (stereo not drawn),3.58 µM,> 61.3 µM
